Where a SMILES comes first, the peptide text is derived from it. The star is where a group is joined. X6 = O=C(/C=C\c1ccc([N+](=O)[O-])cc1)*; X15 = O=C(/C=C\c1ccc(C(F)(F)F)cc1)*; X30 = O=C(CCc1ccc(C(F)(F)F)cc1)*; X21 = O=C(/C=C\c1ccc(Br)cc1)*; Boc = CC(C)(C)OC(=O)*
Molecular target: Gastrin/cholecystokinin type B receptor (Cavia porcellus)
Assay: Inhibition of specific binding of [125I]BH-CCK-8 in guinea pig cortex

Row | Structure (SMILES) | IC50 [µM]
1 | CC(C)(C)OC(=O)N[C@@H](Cc1c[nH]c2ccccc12)C(=O)N[C@@H](CCCCNC(=O)/C=C\c1ccc([N+](=O)[O-])cc1)C(=O)N[C@@H](CC(=O)O)C(=O)N[C@@H](Cc1ccccc1)C(N)=O [3-{2-[2-tert-Butoxycarbonylamino-3-(1H-indol-3-yl)-propionylamino]-6-[3-(4-nitro-phenyl)-acryloylamino]-hexanoylamino}-N-(1-carbamoyl-2-phenyl-ethyl)-succinamic acid; hydrate] (Boc-WK(X6)DF-NH2) | 4.4
2 | CC(C)(C)OC(=O)N[C@@H](Cc1c[nH]c2ccccc12)C(=O)N[C@@H](CCCCNC(=O)/C=C\c1ccc(C(F)(F)F)cc1)C(=O)N[C@@H](CC(=O)O)C(=O)N[C@@H](Cc1ccccc1)C(N)=O [3-{2-[2-tert-Butoxycarbonylamino-3-(1H-indol-3-yl)-propionylamino]-6-[3-(4-trifluoromethyl-phenyl)-acryloylamino]-hexanoylamino}-N-(1-carbamoyl-2-phenyl-ethyl)-succinamic acid; hydrate] (Boc-WK(X15)DF-NH2) | 5.3
3 | CC(C)(C)OC(=O)N[C@@H](Cc1c[nH]c2ccccc12)C(=O)N[C@@H](CCCCNC(=O)CCc1ccc(C(F)(F)F)cc1)C(=O)N[C@@H](CC(=O)O)C(=O)N[C@@H](Cc1ccccc1)C(N)=O [3-{2-[2-tert-Butoxycarbonylamino-3-(1H-indol-3-yl)-propionylamino]-6-[3-(4-trifluoromethyl-phenyl)-propionylamino]-hexanoylamino}-N-(1-carbamoyl-2-phenyl-ethyl)-succinamic acid; hydrate] (Boc-WK(X30)DF-NH2) | 19
4 | CC(C)(C)OC(=O)N[C@@H](Cc1c[nH]c2ccccc12)C(=O)N[C@@H](CCCCNC(=O)/C=C\c1ccc(Br)cc1)C(=O)N[C@@H](CC(=O)O)C(=O)N[C@@H](Cc1ccccc1)C(N)=O [3-{6-[3-(4-Bromo-phenyl)-acryloylamino]-2-[2-tert-butoxycarbonylamino-3-(1H-indol-3-yl)-propionylamino]-hexanoylamino}-N-(1-carbamoyl-2-phenyl-ethyl)-succinamic acid; hydrate.NH4OH] (Boc-WK(X21)DF-NH2) | 5.1
